Test results published in ChEMBL document CHEMBL1130827, “Molecular lipophilicity potential by CLIP, a reliable tool for the description of the 3D distribution of lipophilicity: application to 3-phenyloxazolidin-2-one, a prototype series of reversible MAOA inhibitors” (Bioorg Med Chem Lett, 1998).

Legend:
[1] = Partition coefficient (logP); format: physicochemical; conditions: octanol/water
[2] = Logarithm of capacity factor was determined; format: ADME
[3] = molecular target: T1, Amine oxidase [flavin-containing] A (Homo sapiens, UniProt P21397); assay: Monoamine oxidase A inhibitory potency; conditions: read-out: KiA
T1 sequence (P21397 whole entry): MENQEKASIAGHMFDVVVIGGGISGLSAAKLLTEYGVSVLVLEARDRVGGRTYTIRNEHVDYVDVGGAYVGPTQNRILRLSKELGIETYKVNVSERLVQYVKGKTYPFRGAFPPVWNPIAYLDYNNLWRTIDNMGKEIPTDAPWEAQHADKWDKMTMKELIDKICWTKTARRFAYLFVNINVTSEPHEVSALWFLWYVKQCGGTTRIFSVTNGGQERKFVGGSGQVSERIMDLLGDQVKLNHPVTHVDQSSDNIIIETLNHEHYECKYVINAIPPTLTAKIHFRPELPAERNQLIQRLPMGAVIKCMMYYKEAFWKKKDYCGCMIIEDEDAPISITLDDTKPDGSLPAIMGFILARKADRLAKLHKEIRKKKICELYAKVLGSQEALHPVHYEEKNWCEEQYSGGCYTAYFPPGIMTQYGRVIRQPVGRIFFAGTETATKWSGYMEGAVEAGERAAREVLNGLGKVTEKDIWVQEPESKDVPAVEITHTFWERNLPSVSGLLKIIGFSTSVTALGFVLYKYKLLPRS

| SMILES | logP [1] | Log kw [2] | Ki [3] [nM] |
| --- | --- | --- | --- |
| COC[C@H]1CN(c2ccc(OCCC(C)=O)cc2)C(=O)O1 | 1.37 | 1.43 | 46 |
| COC[C@H]1CN(c2ccc(OCCCC(C)O)cc2)C(=O)O1 (stereo partly drawn) | 2.27 | 1.88 | 13 |
| COC[C@H]1CN(c2ccc(CCCO)cc2)C(=O)O1 | 1.27 | 1.3 | 1.6 |
| COC[C@H]1CN(c2ccc(OCCCCO)cc2)C(=O)O1 | 1.84 | 1.58 | 29 |
| COC[C@H]1CN(c2ccc(OCC[C@@H](O)C(F)(F)F)cc2)C(=O)O1 [BEFLOXATONE] | 2.48 | 2.45 | 3.5 |
| COC[C@H]1CN(c2ccc(OCC[C@@H](C)O)cc2)C(=O)O1 | 1.71 | 1.6 | 6.5 |

Now from value to molecule:

| logP [1] | Log kw [2] | Ki [3] [nM] | SMILES |
| --- | --- | --- | --- |
| 1.13 | 1 | 80 | COC[C@H]1CN(c2ccc(CCO)cc2)C(=O)O1 |
| 3.03 | 3.08 | 28 | C=C(C)CCOc1ccc(N2C[C@H](COC)OC2=O)cc1 |
| 1.17 | 1.17 | 220 | COC[C@H]1CN(c2ccc(OCC(C)O)cc2)C(=O)O1 (stereo partly drawn) |
| 0.77 | 1 | 390 | COC[C@H]1CN(c2ccc(OCCO)cc2)C(=O)O1 |
| 2.7 | 2.21 | 170 | COC[C@H]1CN(c2ccc(OCC[C@@H](C)OC)cc2)C(=O)O1 |
